Assay results as given in patent US20250304643A1, “PEPTIDE DUAL AGONISTS OF GIPR AND GLP2R” (BAINAN BIOTECH APS, priority 2021, published 2025).

Columns and labels:
human GLP-1R = molecular target: T1, human GLP-1R (Homo sapiens, UniProt P43220); experiment: HitHunter cAMP assay in transiently transfected COS-7 cells, human GLP-1R; type: cell-based; details: Emax normalized to highest concentration of endogenous ligand; Table 3
T1 construct: host or cells: COS-7
Description: (§1) The next day the assay was initiated by washing with HEPES buffered saline (HBS) and followed by an incubation step with assay buffer (HBS added 1 mM isobutyl-1-methylxanthine (IBMX)) for 30 min at 37° C. The ligands were then added and incubated for an additional 30 min at 37° C. After ligand incubation, the HitHunter® CAMP assay (Eurofins DiscoverX, Fremont, […] USA) was carried out according to the manufacturer's instructions. Luminescence was measured by PerkinElmer™ EnVision 2014 Multilabel Reader (PerkinElmer, Waltham, MA). The potencies (EC50 values) were determined by nonlinear regression using GraphPad Prism 9 (San Diego, California, USA). Sigmoid curves were fitted logistically. The efficacies (Emax values) were determined by normalization to the highest concentration applied of the endogenous ligand for each receptor.

human SNAP-GIPR = molecular target: T2, human SNAP-GIPR (Homo sapiens, UniProt P48546); type: cell-based; set-up: AUC ± SD: unit not given beside the values
T2 construct: host or cells: HEK293A
T2 sequence (P48546 22-466): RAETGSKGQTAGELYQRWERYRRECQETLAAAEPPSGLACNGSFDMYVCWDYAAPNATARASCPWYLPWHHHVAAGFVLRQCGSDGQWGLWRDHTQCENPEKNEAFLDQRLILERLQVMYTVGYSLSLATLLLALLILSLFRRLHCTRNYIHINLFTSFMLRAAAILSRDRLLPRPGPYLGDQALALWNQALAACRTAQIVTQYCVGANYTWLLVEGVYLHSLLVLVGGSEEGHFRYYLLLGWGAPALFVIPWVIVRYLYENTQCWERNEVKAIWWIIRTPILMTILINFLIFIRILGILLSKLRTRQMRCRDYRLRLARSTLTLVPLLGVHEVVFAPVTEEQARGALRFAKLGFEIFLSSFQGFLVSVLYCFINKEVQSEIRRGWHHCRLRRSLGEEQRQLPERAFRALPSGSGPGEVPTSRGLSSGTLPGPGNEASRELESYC

[1] = system: bone turnover markers CTX (resorption) and P1NP (formation); experiment: bone turnover markers CTX and P1NP in rats after SC injection; type: in vivo, rat
Description: Sprague Dawley female rats, age 10 w (Janvier Labs, France), n=4, were fasted from 06:00 until after final blood sample. A baseline blood sample was taken just before subcutaneous administration of compound at 10:00. Compounds were dissolved in 50 mM phosphate buffer, pH 7.5+0.1% Haemaccel. Dose: Compound no. 11 4248.5 μg/kg.
Blood samples were taken at 10:00, 14:00, 18:00 and 22:00. Plasma was obtained within 20 min after blood sampling and stored at −20C.
CTX and P1NP were measured using RatLaps (CTX-I) EIA and Rat/mouse P1NP EIA (Immunidiagnosticsystems, UK) according to protocols.
Data are presented using GraphPad Prism V9.3.0 as % of baseline as mean+/−SEM and analyzed by 2-way Anova with Sidaks multiple comparisons tests or by unpaired t-test.

rat GIPR = molecular target: T3, rat GIPR (Rattus norvegicus, UniProt P43219); experiment: HitHunter cAMP assay in transiently transfected COS-7 cells, rat GIPR; type: cell-based; details: Emax normalized to highest concentration of endogenous ligand
T3 construct: expressed in transfected cells; host or cells: COS-7
T3 sequence (P43219 19-455): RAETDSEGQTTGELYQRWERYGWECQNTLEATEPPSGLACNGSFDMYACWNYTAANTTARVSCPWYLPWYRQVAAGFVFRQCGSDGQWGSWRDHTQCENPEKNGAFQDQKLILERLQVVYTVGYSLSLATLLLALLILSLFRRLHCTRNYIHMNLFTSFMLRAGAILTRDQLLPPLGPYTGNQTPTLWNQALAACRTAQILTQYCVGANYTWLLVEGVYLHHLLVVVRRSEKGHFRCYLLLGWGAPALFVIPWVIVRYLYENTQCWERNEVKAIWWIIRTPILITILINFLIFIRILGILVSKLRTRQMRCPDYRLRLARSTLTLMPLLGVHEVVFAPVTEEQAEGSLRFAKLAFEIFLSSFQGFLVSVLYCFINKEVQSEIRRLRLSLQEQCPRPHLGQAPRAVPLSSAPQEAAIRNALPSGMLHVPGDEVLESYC
Description: as §1

rat GLP-2R = molecular target: T4, rat GLP-2R (Rattus norvegicus, UniProt Q9Z0W0); experiment: HitHunter cAMP assay in transiently transfected COS-7 cells, rat GLP-2R; type: cell-based; details: Emax normalized to highest concentration of endogenous ligand
T4 construct: expressed in transfected cells; host or cells: COS-7
T4 sequence (Q9Z0W0 1-550): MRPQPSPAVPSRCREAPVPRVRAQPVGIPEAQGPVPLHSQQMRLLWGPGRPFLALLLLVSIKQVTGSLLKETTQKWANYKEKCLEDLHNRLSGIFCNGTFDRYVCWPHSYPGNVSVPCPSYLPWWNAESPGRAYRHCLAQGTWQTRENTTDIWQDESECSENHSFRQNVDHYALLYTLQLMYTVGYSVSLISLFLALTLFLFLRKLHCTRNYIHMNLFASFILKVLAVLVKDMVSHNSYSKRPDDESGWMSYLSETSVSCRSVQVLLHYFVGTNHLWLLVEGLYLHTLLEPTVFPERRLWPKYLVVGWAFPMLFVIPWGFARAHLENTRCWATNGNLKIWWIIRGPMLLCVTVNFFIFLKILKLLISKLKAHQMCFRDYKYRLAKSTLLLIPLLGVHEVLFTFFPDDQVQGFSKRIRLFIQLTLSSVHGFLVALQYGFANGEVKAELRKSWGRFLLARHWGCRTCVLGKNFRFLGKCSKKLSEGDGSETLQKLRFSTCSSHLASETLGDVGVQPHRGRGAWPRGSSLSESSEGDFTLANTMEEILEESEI
Description: as §1

macaque GIPR = experiment: HitHunter cAMP assay in transiently transfected COS-7 cells, macaque GIPR; type: cell-based
Description: as §1

human GIPR [2] = molecular target: T5, human GIPR (Homo sapiens, UniProt P48546); type: cell-based; set-up: host or cells: COS-7; details: Emax normalized to highest concentration of endogenous ligand; Table 2
T5 sequence (P48546 22-466): T2 sequence (P48546 22-466)

human GIPR [3] = molecular target: T5, human GIPR; type: cell-based; set-up: host or cells: HEK293; details: beta-arrestin 2 recruitment; for AUC ± SD: AUC of sigmoid curves up to 100 nM
Description: HEK293 cells were cultured at 10% CO2 and 37° C. in DMEM-GlutaMAX™-I supplemented with 10% FBS, 180 units/mL penicillin and 45 g/mL streptomycin. These cells were transfected using PEI for the beta-arrestin recruitment assay as described in detail in (van der Velden et al., 2021).
HEK293 cells were transiently transfected with human GIPR, the donor Rluc8-Arrestin-3-Sp1 (beta-arrestin 2 recruitment), the acceptor mem-linker-citrine-SH3, and the GPCR kinase 2 (GRK2). Two days following transfection, the cells were washed with PBS and resuspended in PBS with 5 mM glucose. Then, 85 μL of the cell suspension solution was added to each well of a white 96-well plate followed by the addition of PBS with 5 μM coelenterazine-h. Following 10 min incubation, increasing concentrations of ligands were added and incubated for an additional 30 min. Luminescence was measured with the Berthold Technologies Mithras Multilabel Reader (Rluc8 at 485±40 nm and YFP at 530±25 nm). The potencies (EC50 values) were determined by nonlinear regression using GraphPad Prism 9 (San Diego, California, USA). Sigmoid curves were fitted logistically. The efficacies (Emax values) were determined by normalization to the highest concentration applied of the endogenous ligand (GIP) for the GIPR.

human GIPR [4] = molecular target: T5, human GIPR; details: 10 nM ligand for 90 min, then 125I-GIP(1-42) labelling; FIG. 3
Description: COS-7 cells were cultured at 10% CO2 and 37° C. in Dulbecco's Modified Eagle Medium (DMEM) 1885 supplemented with 10% fetal bovine serum (FBS), 2 mM glutamine, 180 units/ml penicillin, and 45 g/ml streptomycin.
The following day, the media of the cells were changed to DMEM supplemented 2% FBS and preincubated either with or without 10 nM ligand for 90 min. […] After incubation, the cells were washed twice in 100 μl per well ice-cold binding buffer and lysed using 175 μl per well of 200 mM NaOH with 1% SDS for 30 min. The samples were analyzed by the Wizard Gamme Counter (PerkinElmer, Waltham, MA). Data was analyzed by comparing the counts measured from the ligand preincubated and non-preincubated cells.

T1 sequence (P43220 24-463): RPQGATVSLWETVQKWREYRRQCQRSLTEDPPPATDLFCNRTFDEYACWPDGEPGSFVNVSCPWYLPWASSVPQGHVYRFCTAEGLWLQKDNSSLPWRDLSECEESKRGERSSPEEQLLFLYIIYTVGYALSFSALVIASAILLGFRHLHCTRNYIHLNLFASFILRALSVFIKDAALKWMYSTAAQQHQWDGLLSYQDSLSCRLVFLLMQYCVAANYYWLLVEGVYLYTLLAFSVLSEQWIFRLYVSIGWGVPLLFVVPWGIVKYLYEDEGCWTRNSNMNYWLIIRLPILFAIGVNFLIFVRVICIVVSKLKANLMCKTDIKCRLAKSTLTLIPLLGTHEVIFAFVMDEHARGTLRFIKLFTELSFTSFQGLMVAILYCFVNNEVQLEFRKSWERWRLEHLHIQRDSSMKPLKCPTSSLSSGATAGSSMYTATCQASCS

Substance	Efficacy GLP-1R (human GLP-1R)	AUC ± SD (human SNAP-GIPR)	Emax ± SD (%) (human SNAP-GIPR; GIPR internalization, NA = no activity)	formation marker P1NP, % of baseline ([1]; female rats, SC 4248.5 μg/kg, time 14:00 and 18:00, FIG. 2B)	resorption marker CTX, % of baseline ([1]; female rats, SC 4248.5 μg/kg, time point 14:00, p-value=0.08, FIG. 2A)	CTX AUC ([1]; rat, in vivo, sc)	rGIPR Efficacy (%) (rat GIPR)	rGLP-2R Efficacy (%) (rat GLP-2R)	maGIPR Efficacy (%) (macaque GIPR; Emax normalized to highest concentration of the endogenous ligand, COS-7 cells)	maGIPR pEC50 (macaque GIPR; cAMP, transiently transfected COS-7 cells)	Efficacy GIPR (human GIPR [2])	AUC ± SD (human GIPR [3])	Emax ± SD (%) (human GIPR [3]; normalized to highest concentration of GIP, NA = no activity)	GIPR expression at the cell surface following ligand preincubation (human GIPR [4])
H-Aib-DGTFISDY-K(γGlu-C16)-TILDNLAARDFINWLIQTKITK-OH [Compound no. 11]	11	19 ± 2	24 ± 6	increase	reduced (ns) increase	tendency towards a reduction	107.0	104.0	92.5	9.0	115	61 ± 14	41 ± 6	
YAEGTFISDYSIAMDKIHQQDFVNWLLAQKGKKNDWKHNITQ [hGIP, reference compound]		204 ± 3										223 ± 16		downregulation of the GIPR from the cell surface
